Active and inactive are the calls of the source. The rule behind the calls is not given here.
What was measured:
[1] = target: Metabotropic glutamate receptor 1 (Rattus norvegicus, UniProt P23385); experiment: Displacement of [18F]FITM from mGlu1 receptor in rat brain homogenates after 1 hr by gamma counting; format: tissue-based
[2] = target: Metabotropic glutamate receptor 5 (Rattus norvegicus, UniProt P31424); experiment: Displacement of [11C]-ABP688 from mGlu5 receptor in rat brain homogenates after 1 hr by gamma counting; format: tissue-based
Metabotropic glutamate receptor 5, sequence (P31424 whole entry): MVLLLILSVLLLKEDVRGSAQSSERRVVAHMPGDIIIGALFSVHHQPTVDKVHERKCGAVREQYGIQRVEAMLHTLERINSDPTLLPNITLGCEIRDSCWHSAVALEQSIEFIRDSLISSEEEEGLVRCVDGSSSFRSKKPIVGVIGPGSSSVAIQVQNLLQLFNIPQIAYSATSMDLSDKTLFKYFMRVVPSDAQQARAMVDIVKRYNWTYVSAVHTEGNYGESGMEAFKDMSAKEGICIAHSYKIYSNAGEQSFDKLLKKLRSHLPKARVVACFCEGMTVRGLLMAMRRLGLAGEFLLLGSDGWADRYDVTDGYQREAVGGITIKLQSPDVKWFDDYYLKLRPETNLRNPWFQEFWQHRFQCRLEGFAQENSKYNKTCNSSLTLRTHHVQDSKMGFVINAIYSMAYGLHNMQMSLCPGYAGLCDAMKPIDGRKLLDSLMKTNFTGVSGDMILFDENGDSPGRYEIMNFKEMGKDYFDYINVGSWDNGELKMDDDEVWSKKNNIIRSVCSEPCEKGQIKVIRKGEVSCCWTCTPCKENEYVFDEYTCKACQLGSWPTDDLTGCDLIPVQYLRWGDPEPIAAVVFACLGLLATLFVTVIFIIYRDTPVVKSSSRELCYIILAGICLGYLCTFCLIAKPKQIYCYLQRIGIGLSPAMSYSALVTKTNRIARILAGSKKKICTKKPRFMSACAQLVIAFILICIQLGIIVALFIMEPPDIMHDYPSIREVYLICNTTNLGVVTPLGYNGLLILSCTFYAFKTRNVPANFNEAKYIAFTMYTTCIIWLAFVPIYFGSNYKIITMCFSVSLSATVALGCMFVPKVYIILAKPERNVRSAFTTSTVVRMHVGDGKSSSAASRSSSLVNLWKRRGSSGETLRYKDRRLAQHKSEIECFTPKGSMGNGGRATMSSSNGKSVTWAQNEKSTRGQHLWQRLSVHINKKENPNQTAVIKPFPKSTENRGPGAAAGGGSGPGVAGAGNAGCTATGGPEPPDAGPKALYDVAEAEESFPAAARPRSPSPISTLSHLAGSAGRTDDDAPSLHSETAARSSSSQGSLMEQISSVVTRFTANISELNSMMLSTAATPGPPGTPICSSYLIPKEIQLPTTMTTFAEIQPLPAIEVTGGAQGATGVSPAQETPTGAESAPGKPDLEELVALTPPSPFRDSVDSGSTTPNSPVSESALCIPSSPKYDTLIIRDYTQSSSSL

[3] = Lipophilicity, log D of the compound by shake flask method; format: physicochemical; conditions: octanol/water
[4] = target: Metabotropic glutamate receptor 1 (Rattus norvegicus) (UniProt P23385); experiment: Binding affinity to mGlu1 receptor in rat hippocampus; format: tissue-based
Metabotropic glutamate receptor 1 (Rattus norvegicus), sequence (P23385 19-1199 limits assumed): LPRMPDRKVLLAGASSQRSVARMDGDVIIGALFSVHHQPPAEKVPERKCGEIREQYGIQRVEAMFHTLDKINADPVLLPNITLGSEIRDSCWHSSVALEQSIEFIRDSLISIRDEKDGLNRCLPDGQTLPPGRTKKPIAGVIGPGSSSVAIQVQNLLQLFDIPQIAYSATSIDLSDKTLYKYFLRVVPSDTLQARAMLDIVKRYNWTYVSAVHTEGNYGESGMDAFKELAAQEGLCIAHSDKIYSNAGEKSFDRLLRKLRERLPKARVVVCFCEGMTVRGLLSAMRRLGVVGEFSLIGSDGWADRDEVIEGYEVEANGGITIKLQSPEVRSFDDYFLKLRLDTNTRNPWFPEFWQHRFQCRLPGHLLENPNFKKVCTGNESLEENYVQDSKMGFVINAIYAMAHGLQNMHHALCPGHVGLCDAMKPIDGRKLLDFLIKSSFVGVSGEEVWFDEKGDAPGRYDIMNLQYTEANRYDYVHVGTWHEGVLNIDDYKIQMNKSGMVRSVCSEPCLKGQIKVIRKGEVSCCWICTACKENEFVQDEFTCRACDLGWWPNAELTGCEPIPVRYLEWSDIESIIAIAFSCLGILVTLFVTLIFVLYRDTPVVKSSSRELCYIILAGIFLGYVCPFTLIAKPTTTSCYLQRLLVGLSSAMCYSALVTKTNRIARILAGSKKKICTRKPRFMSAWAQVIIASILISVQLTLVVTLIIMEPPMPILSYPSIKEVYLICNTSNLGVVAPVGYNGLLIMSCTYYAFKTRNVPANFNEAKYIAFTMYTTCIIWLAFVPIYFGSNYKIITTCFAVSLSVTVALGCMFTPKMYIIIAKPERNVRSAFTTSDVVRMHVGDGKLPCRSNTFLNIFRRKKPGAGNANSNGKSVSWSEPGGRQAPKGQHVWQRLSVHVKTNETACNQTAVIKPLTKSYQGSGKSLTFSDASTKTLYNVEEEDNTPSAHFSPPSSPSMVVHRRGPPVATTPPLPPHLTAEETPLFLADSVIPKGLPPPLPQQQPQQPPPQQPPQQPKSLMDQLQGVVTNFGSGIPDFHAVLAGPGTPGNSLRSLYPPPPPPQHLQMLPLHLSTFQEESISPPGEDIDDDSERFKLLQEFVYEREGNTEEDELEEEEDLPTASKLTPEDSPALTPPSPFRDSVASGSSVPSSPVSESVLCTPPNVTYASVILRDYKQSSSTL

[5] = target: Metabotropic glutamate receptor 1 (Rattus norvegicus) (UniProt P23385); experiment: Binding affinity to mGlu1 receptor in rat striatum; format: tissue-based
[6] = target: Metabotropic glutamate receptor 1 (Rattus norvegicus) (UniProt P23385); experiment: Binding affinity to mGlu1 receptor in rat thalamus; format: tissue-based
[7] = target: Metabotropic glutamate receptor 1 (Rattus norvegicus) (UniProt P23385); experiment: Binding affinity to mGlu1 receptor in rat striatum at 7.4 MBq after 60 mins by autoradiography; format: tissue-based; conditions: 7.4 M, tested as the 14C-labelled form
[8] = target: Metabotropic glutamate receptor 1 (Rattus norvegicus) (UniProt P23385); experiment: Binding affinity to mGlu1 receptor in rat brain substantia nigra pars reticulate at 7.4 MBq after 60 mins by autoradiography; format: tissue-based; conditions: 7.4 M, tested as the 14C-labelled form
[9] = target: Metabotropic glutamate receptor 1 (Rattus norvegicus) (UniProt P23385); experiment: Binding affinity to mGlu1 receptor in rat thalamus at 7.4 MBq after 60 mins by autoradiography; format: tissue-based; conditions: 7.4 M, tested as the 14C-labelled form
[10] = target: Metabotropic glutamate receptor 1 (Rattus norvegicus) (UniProt P23385); experiment: Binding affinity to mGlu1 receptor in rat brain homogenates at 7.4 MBq after 60 mins by autoradiography in presence of unlabeled N-[4-[6-(Isopropylamino)pyrimidin-4-yl]-1,3-thiazol-2-yl]- N,4-dimethylbenzamide; format: tissue-based; conditions: 7.4 M, tested as the 14C-labelled form
[11] = target: Metabotropic glutamate receptor 1 (Rattus norvegicus) (UniProt P23385); experiment: Binding affinity to mGlu1 receptor in rat hippocampus at 7.4 MBq after 60 mins by autoradiography; format: tissue-based; conditions: 7.4 M, tested as the 14C-labelled form
[12] = target: Metabotropic glutamate receptor 1 (Rattus norvegicus) (UniProt P23385); experiment: Binding affinity to mGlu1 receptor in rat brain cerebral cortex at 7.4 MBq after 60 mins by autoradiography; format: tissue-based; conditions: 7.4 M, tested as the 14C-labelled form
[13] = target: Metabotropic glutamate receptor 1 (Rattus norvegicus) (UniProt P23385); experiment: Binding affinity to mGlu1 receptor in rat brain homogenates at 7.4 MBq after 60 mins by autoradiography in presence of unlabeled 4-(6-chloropyrimidin-4-yl)-N-methylthiazol-2-amine; format: tissue-based; conditions: 7.4 M, tested as the 14C-labelled form
[14] = target: Metabotropic glutamate receptor 1 (Rattus norvegicus) (UniProt P23385); experiment: Binding affinity to mGlu1 receptor in rat cerebellum at 7.4 MBq after 60 mins by autoradiography; format: tissue-based; conditions: 7.4 M, tested as the 14C-labelled form
[15] = target: Metabotropic glutamate receptor 1 (Rattus norvegicus) (UniProt P23385); experiment: Binding affinity to mGlu1 receptor in rat brain pons at 7.4 MBq after 60 mins by autoradiography; format: tissue-based; conditions: 7.4 M, tested as the 14C-labelled form

Metabotropic glutamate receptor 1, sequence (P23385 whole entry): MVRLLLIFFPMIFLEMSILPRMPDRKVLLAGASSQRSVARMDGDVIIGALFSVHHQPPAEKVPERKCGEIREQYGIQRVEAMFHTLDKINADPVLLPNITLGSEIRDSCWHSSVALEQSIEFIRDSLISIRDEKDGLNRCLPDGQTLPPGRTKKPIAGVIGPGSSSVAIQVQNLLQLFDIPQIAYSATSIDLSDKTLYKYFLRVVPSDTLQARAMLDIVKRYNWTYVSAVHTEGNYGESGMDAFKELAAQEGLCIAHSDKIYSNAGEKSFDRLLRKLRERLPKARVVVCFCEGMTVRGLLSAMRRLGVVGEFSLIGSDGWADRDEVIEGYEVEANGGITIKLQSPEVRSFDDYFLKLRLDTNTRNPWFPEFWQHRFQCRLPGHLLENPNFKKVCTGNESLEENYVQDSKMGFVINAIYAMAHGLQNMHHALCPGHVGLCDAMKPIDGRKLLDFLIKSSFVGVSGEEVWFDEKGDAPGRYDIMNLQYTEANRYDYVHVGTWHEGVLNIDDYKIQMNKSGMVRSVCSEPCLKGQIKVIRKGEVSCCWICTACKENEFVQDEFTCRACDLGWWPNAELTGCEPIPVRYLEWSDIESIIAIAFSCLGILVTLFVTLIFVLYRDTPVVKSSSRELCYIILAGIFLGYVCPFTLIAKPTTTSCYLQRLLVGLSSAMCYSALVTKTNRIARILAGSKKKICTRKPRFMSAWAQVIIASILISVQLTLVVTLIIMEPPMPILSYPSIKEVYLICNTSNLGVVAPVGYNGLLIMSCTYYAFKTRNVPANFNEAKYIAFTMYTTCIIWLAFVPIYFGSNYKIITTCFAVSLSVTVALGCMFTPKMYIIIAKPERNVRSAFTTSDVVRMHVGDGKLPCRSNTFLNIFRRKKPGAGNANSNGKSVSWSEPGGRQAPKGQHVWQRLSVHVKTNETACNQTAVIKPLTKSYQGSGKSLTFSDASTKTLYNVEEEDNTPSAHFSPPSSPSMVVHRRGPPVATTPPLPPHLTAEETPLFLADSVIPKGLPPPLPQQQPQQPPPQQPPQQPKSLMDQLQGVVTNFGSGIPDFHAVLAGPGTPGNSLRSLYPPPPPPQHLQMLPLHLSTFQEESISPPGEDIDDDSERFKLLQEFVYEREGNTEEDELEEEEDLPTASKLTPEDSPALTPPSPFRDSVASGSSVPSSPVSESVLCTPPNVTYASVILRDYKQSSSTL

| IC50 [1] | Ki [1] | IC50 [2] | logD [3] | Activity [4] | Activity [5] | Activity [6] | Activity [7] | Activity [8] | Activity [9] | Activity [10] | Activity [11] | Activity [12] | Activity [13] | Activity [14] | Activity [15] | Compound |
| --- | --- | --- | --- | --- | --- | --- | --- | --- | --- | --- | --- | --- | --- | --- | --- | --- |
| 47 nM | 22.2 nM | > 10000 nM | – | – | – | – | – | – | – | – | – | – | – | – | – | CC(C)Nc1cc(-c2csc(N(C)C(=O)c3ccc(Cl)cc3)n2)ncn1 |
| 64.7 nM | 27.3 nM | > 10000 nM | – | – | – | – | – | – | – | – | – | – | – | – | – | CC(C)Nc1cc(-c2csc(N(C)C(=O)c3ccc(C#N)cc3)n2)ncn1 |
| 26.5 nM | 13.6 nM | > 10000 nM | 1.74 | 27.5 nM | 22.2 nM | 36.3 nM | Active | Active | Active | inactive | Active | Active | inactive | Active | Active | Cc1ccc(C(=O)N(C)c2nc(-c3cc(NC(C)C)ncn3)cs2)cc1 |

From ChEMBL document CHEMBL2176881, “Development of N-[4-[6-(isopropylamino)pyrimidin-4-yl]-1,3-thiazol-2-yl]-N-methyl-4-[11C]methylbenzamide for positron emission tomography imaging of metabotropic glutamate 1 receptor in monkey brain” (J Med Chem, 2012)
